Results published in patent US11679140B2, “Prevention and/or treatment of hearing loss or impairment” (INSTITUT PASTEUR, priority 2015, dated 2023).
“Also recorded” adds a separate entry of the source.

Columns and labels:
[1] = tested on: mouse embryonic fibroblasts; assay: H2O2-induced peroxisome proliferation in mouse embryonic fibroblasts; format: cell-based
Method: Fibroblasts were isolated from mouse embryos at embryonic day 13.5 and cultured as described by Xu (2005). The cells were incubated in DMEM (Gibco) supplemented with 0.1 mM β-mercaptoethanol, and 0.5 mM H2O2 for 4 hours at 37° C., under normoxic conditions (95% air). The culture medium was then replaced with H2O2-free medium. Cell viability was checked 18 hours after H2O2 treatment, by measuring mitochondrial reductase activity with the MTT (3-(4,5-dimethylthiazol-2-yl)-2,5-diphenyl tetrazolium bromide) (Sigma M2128) assay. A polyclonal antibody against peroxisome membrane protein 70 (PMP70, Abcam ab3421) was used to label peroxisomes.

Pjvk−/− mice = assay: Auditory brainstem responses (ABR) in Pjvk−/− mice; format: in vivo, mouse; details: for recovery of ABR wave I latency and ABR interwave I-IV: treated Pjvk−/− mice
Method: (§1) Auditory tests were performed in an anechoic room. They consisted of distortion-product otoacoustic emissions (DPOAEs), auditory brainstem responses (ABRs), electrically-evoked brainstem responses (EEBRs), and cochlear potentials. Mice were anesthetized with an intraperitoneal injection of a ketamine and levomepromazin mixture (100 mg/kg: 5 mg/kg) and their core temperature was kept at 37° C. with the help of a servo-controlled heating pad. The DPOAE at frequency 2f1-f2 was recorded in response to two equal level primary tones, f1 and f2, with f2/f1=1.20 (CubeDis system, Mimosa Acoustics; ER10B microphone, Etymotic Res.). Frequency f2 was swept at 1/10th octave steps from 4 to 20 kHz, and DPOAE level was plotted against frequency f2 (primary tone levels increased from 20 to 70 dB SPL in 10 dB steps, then to 75 dB SPL). DPOAE threshold was defined as the smallest primary level giving rise to a detectable DPOAE. ABRs in response to calibrated short tone bursts in the 5-40 kHz range (repetition rate 17/s) were derived from the synchronous averaging of electroencephalograms recorded between subcutaneous stainless steel electrodes at the vertex and ipsilateral mastoid, with the help of a standard digital averaging system (CED1401+). A hundred responses to the tone bursts were averaged except within 10 dB of the ABR threshold (defined as the smallest tone-burst level giving rise to at least one repeatable wave above noise background level, 150 nV in an anesthetized animal), for which 300 tone bursts were used. Once ABR thresholds had been assessed, ABRs in response to 95 and 105 dB SPL tone bursts (100 averages) were collected for analysis of suprathreshold ABR waveforms, amplitudes and latencies. Controlled sound exposure was applied with the same acoustic probe used for ABRs without moving the sound system, so that pre- and post-exposure ABRs shared the same calibration. Intense stimuli were the same tone-bursts used for ABR measurements at 105 dB SPL, presented 1,000 times at the same repetition rate of 17/s. […]
N-acetyl-L-cysteine (L-NAC; Sigma) or taurine (Sigma) was administrated to pregnant Pjvk^−/− mice in the drinking water. A daily dose of 1% L-NAC or 2% taurine was given to the mother during and after pregnancy, so that pups received them from birth on by feeding on the mother's milk. The treatment was continued until P21, and the auditory function of the treated Pjvk^−/− pups was tested at P21.

[2] = tested on: Pjvk−/− mice (auditory neurons); assay: Electrically-evoked brainstem responses (EEBR) with controlled electrical stimulation in Pjvk−/− mice; format: in vivo, mouse; details: for EEBR wave E IV amplitude / resistance to high-rate electrical stimulation: 200/s for 1 minute, treated Pjvk−/− mice
Excerpt: Electrical stimulations of the eighth cranial nerve were delivered by a silver electrode placed in the round-window niche and excited by biphasic electrical impulses (neutral electrode in neck muscles; peak amplitude of electrical stimulus about 0.5 V; duration of the positive and negative phases 150 microseconds; adjustable repetition rate). EEBRs were extracted using the same setup as for ABRs (Roux et al., 2006), in response to 100 electrical impulses presented with alternating polarities (repetition rate 17 Hz). EEBR threshold was defined as the smallest electrical amplitude eliciting repeatable waves above noise background level (the same as for ABRs), labelled from E II to E IV in reference to their ABR equivalents II-IV. Controlled electrical stimulation was applied at 5 dB above EEBR detection threshold with a 200 Hz repetition rate. Occasionally, the silver electrode on the round window served for recording Compound Action Potentials (CAPs) in response to the same tone-bursts used for ABR studies (averages of 32 presentations, repetition rates 17/s), prior to EEBR data collection. These recordings served to check that CAP thresholds and ABR thresholds were within 2 dB of each other at all frequencies, and the exact position of ABR wave I could be ascertained form the larger wave N1, its equivalent on CAP recordings. This was particularly important in mice with abnormally small wave I to avoid incorrect identifications (when wave I was reduced to a very small flattened deflection resembling a summating potential, the slightly larger wave II might have been mistakenly labelled wave I on ABR recordings, while wave N1, even when small, kept its characteristic shape).
Intracochlear viral transduction was carried out as described by Akil et al. (2012). […]
Which cells are the targets of the pejvakin defect, and are they all hypervulnerable to sound exposure? […] Moreover, Electrically-Evoked Brainstem Responses (EEBR) to a direct electric stimulation of the auditory neurons, which test the response of the auditory pathway beyond the cochlea, was also analysed. […]

[3] = tested on: Pjvk−/− mice (OHC function); assay: Distortion-product otoacoustic emissions (DPOAE) in Pjvk−/− mice; format: in vivo, mouse; details: antioxidant-treated Pjvk−/− pups, around P21
Method: as §1, with “DPOAE threshold was defined as the smallest primary level giving rise to a detectable DPOAE.” left out, “A hundred responses to the tone bursts were averaged except within 10 dB of the ABR threshold (defined as the smallest tone-burst level giving rise to at least one repeatable wave above noise background level, 150 nV in an anesthetized animal), for which 300 tone bursts were used.” left out, “latencies.” for “latencies. Controlled sound exposure was applied with the same acoustic probe used for ABRs without moving the sound system, so that pre- and post-exposure ABRs shared the same calibration. Intense stimuli were the same tone-bursts used for ABR measurements at 105 dB SPL, presented 1,000 times at the same repetition rate of 17/s.”

[4] = antioxidant-treated Pjvk−/− mice, P21

SMILES | increase in number of peroxisomes after H2O2 treatment, Pjvk+/+ fibroblasts ([1]; 0.5 mM H2O2, Pjvk+/+ MEFs) [%] | number of peroxisomes after H2O2 treatment, Pjvk−/− fibroblasts ([1]; 0.5 mM H2O2, Pjvk−/− MEFs) | protective effect on IHCs and neurons (Pjvk−/− mice; Pjvk−/− mice) | number of auditory neurons that responded to sound stimulation in synchrony (Pjvk−/− mice; Pjvk−/− pups treated via mother's milk) | ABR threshold at 10 kHz (Pjvk−/− mice; antioxidant via mother's drinking water/milk, Pjvk−/− pups tested around P21) [dB SPL] | ABR wave I amplitude (in words) (Pjvk−/− mice; [4]) | ABR wave I latency (Pjvk−/− mice; [4]) [ms] | amplitude of ABR wave I in response to 105 dB SPL (Pjvk−/− mice; [4]) [μV] | ABR interwave I-IV latency (Pjvk−/− mice; antioxidant-treated Pjvk−/− pups, P21) [ms] | ABR thresholds (recovery) (Pjvk−/− mice; antioxidant-treated vs untreated Pjvk−/− pups, P21, listed as NAC) | recovery of ABR wave I latency and ABR interwave I-IV (Pjvk−/− mice; P21) | EEBR wave E IV amplitude / resistance to high-rate electrical stimulation [2] | EEBR wave E IV amplitude / resistance to high-rate electrical stimulation ([2]; listed as NAC) | recovery of neuronal function after high-rate electrical stimulation ([2]; 5 min after high-rate exposure) | effect on OHCs (DPOAE) [3]
OO [H2O2] | 46 | remained unchanged | – | – | – | – | – | – | – | – | – | – | – | – | –
CC(=O)N[C@@H](CS)C(=O)O [N-acetyl cysteine, N-acetyl-L-cysteine] | – | – | moderate protective effect | restored | 72.2±9.3 | fell within the normative range | 1.55 ± 0.18 | 4.35±1.16 | 2.91 ± 0.32 | slight recovery; also recorded: slightly improved | no significant recovery | resisted to high-rate electric stimulation of auditory pathways better than untreated | remained unaffected | Full recovery of neuronal function | no beneficial effect on OHCs
NCCS(=O)(=O)O [taurine] | – | – | – | – | – | – | – | – | – | – | no significant recovery | – | – | – | no beneficial effect on OHCs
